Each molecule was assayed against T1, GLP-1R (Homo sapiens, UniProt P43220) (assay: GLP-1R activation cAMP assay (Assay 1 or Assay 2)). Conditions: cAMP increase in CHO cells stably expressing GLP-1R; compounds run on one of the two cAMP assays.
T1 construct: host or cells: CHO cells
Assay type: cell-based
How it was run: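 CHO cells stably expressing human GLP-1R were incubated 1 h in HBSS/20 mM HEPES/0.1% BSA, then exposed to 10-point agonist dilutions for 30 min at 37 °C. cAMP increase was measured with an HTRF Gs dynamic kit; EC50 from sigmoidal fit of response versus log concentration.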

T1 sequence (P43220 24-463): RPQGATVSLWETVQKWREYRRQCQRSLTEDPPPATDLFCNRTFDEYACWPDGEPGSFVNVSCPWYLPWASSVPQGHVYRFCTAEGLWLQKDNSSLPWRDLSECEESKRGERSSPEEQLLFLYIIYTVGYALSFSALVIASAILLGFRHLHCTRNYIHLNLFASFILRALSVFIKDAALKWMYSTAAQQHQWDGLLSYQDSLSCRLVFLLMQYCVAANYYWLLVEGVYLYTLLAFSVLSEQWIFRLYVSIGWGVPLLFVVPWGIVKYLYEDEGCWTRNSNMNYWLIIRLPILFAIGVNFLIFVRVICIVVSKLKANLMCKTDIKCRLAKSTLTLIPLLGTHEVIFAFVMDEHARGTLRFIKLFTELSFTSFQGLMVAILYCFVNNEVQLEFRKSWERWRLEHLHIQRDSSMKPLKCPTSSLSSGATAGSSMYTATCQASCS

Compound | EC50 [pM]
Cn1cc(-c2cnc(COc3cccc(-c4cc(F)c(Cc5nc6c(F)cc(C(=O)O)cc6n5C[C@@H]5CCO5)cc4F)n3)s2)cn1 [Example 87, (S)-2-(2,5-difluoro-4-(6-((5-(1-methyl-1H-pyrazol-4-yl)thiazol-2-yl)methoxy)pyridin-2-yl)benzyl)-4-fluoro-1-(oxetan-2-ylmethyl)-1H-benzo[d]imidazole-6-carboxylic acid] | 80
O=C(O)c1ccc2nc(Cc3cc(F)c(-c4cccc(OCc5ncc(-c6cnn(CC7CC7)c6)s5)n4)cc3F)n(C[C@@H]3CCO3)c2c1 [Example 88, (S)-2-(4-(6-((5-(1-(cyclopropylmethyl)-1H-pyrazol-4-yl)thiazol-2-yl)methoxy)pyridin-2-yl)-2,5-difluorobenzyl)-1-(oxetan-2-ylmethyl)-1H-benzo[d]imidazole-6-carboxylic acid] | 440
Cn1cc(-c2cnc(COc3cccc(-c4cc(F)c(Cc5nc6ccc(C(=O)O)cc6n5C[C@@H]5CCO5)cc4F)n3)s2)nn1 [Example 89, (S)-2-(2,5-difluoro-4-(6-((5-(1-methyl-1H-1,2,3-triazol-4-yl)thiazol-2-yl)methoxy)pyridin-2-yl)benzyl)-1-(oxetan-2-ylmethyl)-1H-benzo[d]imidazole-6-carboxylic acid] | 1860
O=C(O)c1ccc2nc(Cc3cc(F)c(-c4cccc(OCc5ncc(-c6cnn(C7CC7)c6)s5)n4)cc3F)n(C[C@@H]3CCO3)c2c1 [Example 90, (S)-2-(4-(6-((5-(1-cyclopropyl-1H-pyrazol-4-yl)thiazol-2-yl)methoxy)pyridin-2-yl)-2,5-difluorobenzyl)-1-(oxetan-2-ylmethyl)-1H-benzo[d]imidazole-6-carboxylic acid] | 210
Cn1cc(-c2nnc(COc3cccc(-c4cc(F)c(Cc5nc6ccc(C(=O)O)cc6n5C[C@@H]5CCO5)cc4F)n3)s2)cn1 [Example 91, (S)-2-(2,5-difluoro-4-(6-((5-(1-methyl-1H-pyrazol-4-yl)-1,3,4-thiadiazol-2-yl)methoxy)pyridin-2-yl)benzyl)-1-(oxetan-2-ylmethyl)-1H-benzo[d]imidazole-6-carboxylic acid] | 120
O=C(O)c1ccc2nc(Cc3cc(F)c(-c4cccc(OCc5nnc(-c6cnn(C(F)F)c6)s5)n4)cc3F)n(C[C@@H]3CCO3)c2c1 [Example 92, (S)-2-(4-(6-((5-(1-(difluoromethyl)-1H-pyrazol-4-yl)-1,3,4-thiadiazol-2-yl)methoxy)pyridin-2-yl)-2,5-difluorobenzyl)-1-(oxetan-2-ylmethyl)-1H-benzo[d]imidazole-6-carboxylic acid] | 70
O=C(O)c1ccc2nc(Cc3cc(F)c(-c4cccc(OCc5ncc(-c6cnco6)s5)n4)cc3F)n(C[C@@H]3CCO3)c2c1 [Example 93, (S)-2-(2,5-difluoro-4-(6-((5-(oxazol-5-yl)thiazol-2-yl)methoxy)pyridin-2-yl)benzyl)-1-(oxetan-2-ylmethyl)-1H-benzo[d]imidazole-6-carboxylic acid] | 60
Cn1nccc1-c1cnc(COc2cccc(-c3cc(F)c(Cc4nc5ccc(C(=O)O)cc5n4C[C@@H]4CCO4)cc3F)n2)s1 [Example 94, (S)-2-(2,5-difluoro-4-(6-((5-(1-methyl-1H-pyrazol-5-yl)thiazol-2-yl)methoxy)pyridin-2-yl)benzyl)-1-(oxetan-2-ylmethyl)-1H-benzo[d]imidazole-6-carboxylic acid] | 2870
O=C(O)c1ccc2nc(Cc3cc(F)c(-c4cccc(OCc5ncc(-c6cnsc6)s5)n4)cc3F)n(C[C@@H]3CCO3)c2c1 [Example 95, (S)-2-(2,5-difluoro-4-(6-((5-(isothiazol-4-yl)thiazol-2-yl)methoxy)pyridin-2-yl)benzyl)-1-(oxetan-2-ylmethyl)-1H-benzo[d]imidazole-6-carboxylic acid] | 80
O=C(O)c1ccc2nc(Cc3cc(F)c(-c4cccc(OCc5nnc(-c6cnn(C7CC7)c6)s5)n4)cc3F)n(C[C@@H]3CCO3)c2c1 [Example 96, (S)-2-(4-(6-((5-(1-cyclopropyl-1H-pyrazol-4-yl)-1,3,4-thiadiazol-2-yl)methoxy)pyridin-2-yl)-2,5-difluorobenzyl)-1-(oxetan-2-ylmethyl)-1H-benzo[d]imidazole-6-carboxylic acid] | 130
Cn1cc(-c2cnc(COc3cccc(-c4cc(F)c(Cc5nc6ccc(C(=O)O)cc6n5[C@H]5COCC5(C)C)cc4F)n3)s2)cn1 [Example 97, (R)-2-(2,5-difluoro-4-(6-((5-(1-methyl-1H-pyrazol-4-yl)thiazol-2-yl)methoxy)pyridin-2-yl)benzyl)-1-(4,4-dimethyltetrahydrofuran-3-yl)-1H-benzo[d]imidazole-6-carboxylic acid] | 110
Cn1cc(-c2cnc(COc3nc(-c4cc(F)c(Cc5nc6c(F)cc(C(=O)O)cc6n5C[C@@H]5CCO5)cc4F)ccc3F)s2)cn1 [Example 98, (S)-2-(2,5-difluoro-4-(5-fluoro-6-((5-(1-methyl-1H-pyrazol-4-yl)thiazol-2-yl)methoxy)pyridin-2-yl)benzyl)-4-fluoro-1-(oxetan-2-ylmethyl)-1H-benzo[d]imidazole-6-carboxylic acid] | 30
Cn1cc(-c2cnc(COc3nc(-c4cc(F)c(Cc5nc6ccc(C(=O)O)cc6n5C[C@@H]5CCO5)cc4F)ccc3F)s2)cn1 [Example 99, (S)-2-(2,5-difluoro-4-(5-fluoro-6-((5-(1-methyl-1H-pyrazol-4-yl)thiazol-2-yl)methoxy)pyridin-2-yl)benzyl)-1-(oxetan-2-ylmethyl)-1H-benzo[d]imidazole-6-carboxylic acid] | 140
O=C(O)c1ccc2nc(Cc3cc(F)c(-c4cccc(OCc5ncc(-c6ccns6)s5)n4)cc3F)n(C[C@@H]3CCO3)c2c1 [Example 100, (S)-2-(2,5-difluoro-4-(6-((5-(isothiazol-5-yl)thiazol-2-yl)methoxy)pyridin-2-yl)benzyl)-1-(oxetan-2-ylmethyl)-1H-benzo[d]imidazole-6-carboxylic acid] | 90
O=C(O)c1ccc2nc(Cc3cc(F)c(-c4cccc(OCc5ncc(-c6cncs6)s5)n4)cc3F)n(C[C@@H]3CCO3)c2c1 [Example 101, (S)-2-(4-(6-([5,5′-bithiazol]-2-ylmethoxy)pyridin-2-yl)-2,5-difluorobenzyl)-1-(oxetan-2-ylmethyl)-1H-benzo[d]imidazole-6-carboxylic acid] | 140
Cn1cncc1-c1cnc(COc2cccc(-c3cc(F)c(Cc4nc5ccc(C(=O)O)cc5n4C[C@@H]4CCO4)cc3F)n2)s1 [Example 102, (S)-2-(2,5-difluoro-4-(6-((5-(1-methyl-1H-imidazol-5-yl)thiazol-2-yl)methoxy)pyridin-2-yl)benzyl)-1-(oxetan-2-ylmethyl)-1H-benzo[d]imidazole-6-carboxylic acid] | 13600
Cn1ccc(-c2cnc(COc3cccc(-c4cc(F)c(Cc5nc6ccc(C(=O)O)cc6n5C[C@@H]5CCO5)cc4F)n3)s2)n1 [Example 103, (S)-2-(2,5-difluoro-4-(6-((5-(1-methyl-1H-pyrazol-3-yl)thiazol-2-yl)methoxy)pyridin-2-yl)benzyl)-1-(oxetan-2-ylmethyl)-1H-benzo[d]imidazole-6-carboxylic acid] | 230
Cc1nc(COc2cccc(-c3cc(F)c(Cc4nc5ccc(C(=O)O)cc5n4C[C@H]4CCO4)cc3F)n2)sc1-c1cnn(C)c1 [Example 104, (R)-2-(2,5-difluoro-4-(6-((4-methyl-5-(1-methyl-1H-pyrazol-4-yl)thiazol-2-yl)methoxy)pyridin-2-yl)benzyl)-1-(oxetan-2-ylmethyl)-1H-benzo[d]imidazole-6-carboxylic acid] | 70
O=C(O)c1ccc2nc(Cc3cc(F)c(-c4cccc(OCc5ncc(-c6cncnc6)s5)n4)cc3F)n(C[C@@H]3CCO3)c2c1 [Example 105, (S)-2-(2,5-difluoro-4-(6-((5-(pyrimidin-5-yl)thiazol-2-yl)methoxy)pyridin-2-yl)benzyl)-1-(oxetan-2-ylmethyl)-1H-benzo[d]imidazole-6-carboxylic acid] | 140
O=C(O)c1ccc2nc(Cc3cc(F)c(-c4cccc(OCc5ncc(-c6cnccn6)s5)n4)cc3F)n(C[C@@H]3CCO3)c2c1 [Example 106, (S)-2-(2,5-difluoro-4-(6-((5-(pyrazin-2-yl)thiazol-2-yl)methoxy)pyridin-2-yl)benzyl)-1-(oxetan-2-ylmethyl)-1H-benzo[d]imidazole-6-carboxylic acid] | 140
O=C(O)c1ccc2nc(Cc3cc(F)c(-c4cccc(OCc5ncc(-c6ccccn6)s5)n4)cc3F)n(C[C@@H]3CCO3)c2c1 [Example 107, (S)-2-(2,5-difluoro-4-(6-((5-(pyridin-2-yl)thiazol-2-yl)methoxy)pyridin-2-yl)benzyl)-1-(oxetan-2-ylmethyl)-1H-benzo[d]imidazole-6-carboxylic acid] | 310
O=C(O)c1ccc2nc(Cc3cc(F)c(-c4cccc(OCc5ncc(-c6cccnc6)s5)n4)cc3F)n(C[C@@H]3CCO3)c2c1 [Example 108, (S)-2-(2,5-difluoro-4-(6-((5-(pyridin-3-yl)thiazol-2-yl)methoxy)pyridin-2-yl)benzyl)-1-(oxetan-2-ylmethyl)-1H-benzo[d]imidazole-6-carboxylic acid] | 180
Cn1cc(-c2cc(COc3cccc(-c4cc(F)c(Cc5nc6ccc(C(=O)O)cc6n5C[C@@H]5CCO5)cc4F)n3)nn2C)cn1 [Example 109, (S)-2-(4-(6-((1′,2-dimethyl-1′H,2H-[3,4′-bipyrazol]-5-yl)methoxy)pyridin-2-yl)-2,5-difluorobenzyl)-1-(oxetan-2-ylmethyl)-1H-benzo[d]imidazole-6-carboxylic acid] | 620
Cn1nc(COc2cccc(-c3cc(F)c(Cc4nc5ccc(C(=O)O)cc5n4C[C@@H]4CCO4)cc3F)n2)cc1-c1cnn(C(F)F)c1 [Example 110, (S)-2-(4-(6-((1′-(difluoromethyl)-2-methyl-1′H,2H-[3,4′-bipyrazol]-5-yl)methoxy)pyridin-2-yl)-2,5-difluorobenzyl)-1-(oxetan-2-ylmethyl)-1H-benzo[d]imidazole-6-carboxylic acid] | 950
